Test results taken from PMC9516332 (Frontiers in Oncology, 2022).
pIC50: −log10 of the molar value. Read-outs that look alike come from different tables or passages of the source.

Assays:
[1] = molecular target: panel of 255 wild-type kinases (Homo sapiens, UniProt O00311); assay: Kinase panel profiling at 1 µmol/L (MSA or IMAP), percentage inhibition; format: biochemical; conditions: CDC7/ASK kinase assay; 1 µmol/L single concentration; read-out: %-inhibition CDC7/ASK
[2] = molecular target: panel of 255 wild-type kinases (Homo sapiens, UniProt P42684); assay: as above; format: biochemical; conditions: ARG kinase assay; 1 µmol/L single concentration; read-out: %-inhibition ARG
134 cancer cell lines [3] = system: 134 cancer cell lines
134 cancer cell lines [4] = assay: Cell viability assay (ATPlite, 72 hours), IC50 on cancer cell line panel

COC(=O)N[C@@H](C)CNc1nccc(-c2cn(C(C)C)nc2-c2cc(Cl)cc(NS(C)(=O)=O)c2F)n1 [encorafenib]
inhibition at 1 µM [1]: -4.28%
inhibition at 1 µM [2]: 1.69%
pIC50 (134 cancer cell lines [3]): 6.23
pIC50 (134 cancer cell lines [4]; HEC-6, read-out: IC50 in cell proliferation assay, HEC-6 cell line (EGFR p.A289V)): 5.91
pIC50 (134 cancer cell lines [4]; Homo sapiens, 769-P, read-out: IC50 in cell proliferation assay, cell line 769-P): 5.93
pIC50 (134 cancer cell lines [4]; Homo sapiens, 786-0, read-out: IC50 in cell proliferation assay, cell line 786-O): 5.86
pIC50 (134 cancer cell lines [4]; Homo sapiens, A 172, read-out: IC50 in cell proliferation assay, cell line A-172): 5.75
pIC50 (134 cancer cell lines [4]; Homo sapiens, A204, read-out: IC50 in cell proliferation assay, cell line A-204): 5.98
pIC50 (134 cancer cell lines [4]; Homo sapiens, A498, read-out: IC50 in cell proliferation assay, cell line A-498): 6.28
pIC50 (134 cancer cell lines [4]; Homo sapiens, A549, read-out: IC50 in cell proliferation assay, cell line A-549): 5.91
pIC50 (134 cancer cell lines [4]; Homo sapiens, A704, read-out: IC50 in cell proliferation assay, cell line A-704): 5.26
pIC50 (134 cancer cell lines [4]; Homo sapiens, A-375, read-out: IC50 in cell proliferation assay, cell line A-375 (BRAF p.V600E)): 8.05
pIC50 (134 cancer cell lines [4]; Homo sapiens, A-427, read-out: IC50 in cell proliferation assay, cell line A-427): 6.08
pIC50 (134 cancer cell lines [4]; Homo sapiens, ACHN, read-out: IC50 in cell proliferation assay, cell line ACHN): 6.20
pIC50 (134 cancer cell lines [4]; Homo sapiens, AN3-CA, read-out: IC50 in cell proliferation assay, cell line AN3-CA (FGFR2 p.N549K)): 6.21
pIC50 (134 cancer cell lines [4]; Homo sapiens, ASPC1, read-out: IC50 in cell proliferation assay, cell line AsPC-1): 5.54
pIC50 (134 cancer cell lines [4]; Homo sapiens, AU565, read-out: IC50 in cell proliferation assay, cell line AU565 (ERBB2 amplification)): 6.38
pIC50 (134 cancer cell lines [4]; Homo sapiens, BT-20, read-out: IC50 in cell proliferation assay, cell line BT-20): < 4.50
pIC50 (134 cancer cell lines [4]; Homo sapiens, BT-474, read-out: IC50 in cell proliferation assay, cell line BT-474 (ERBB2 amplification)): < 4.50
pIC50 (134 cancer cell lines [4]; Homo sapiens, BT-549, read-out: IC50 in cell proliferation assay, cell line BT-549): 5.99
pIC50 (134 cancer cell lines [4]; Homo sapiens, BXPC-3, read-out: IC50 in cell proliferation assay, cell line BxPC-3): 6.39
pIC50 (134 cancer cell lines [4]; Homo sapiens, C-33-A, read-out: IC50 in cell proliferation assay, cell line C-33 A): 6.04
pIC50 (134 cancer cell lines [4]; Homo sapiens, CAL-27, read-out: IC50 in cell proliferation assay, cell line CAL-27): 5.16
pIC50 (134 cancer cell lines [4]; Homo sapiens, CCF-STTG1, read-out: IC50 in cell proliferation assay, cell line CCF-STTG1): < 4.50
pIC50 (134 cancer cell lines [4]; Homo sapiens, CCRF-CEM, read-out: IC50 in cell proliferation assay, cell line CCRF-CEM): < 4.50
pIC50 (134 cancer cell lines [4]; Homo sapiens, COLO 205, read-out: IC50 in cell proliferation assay, cell line COLO 205 (BRAF p.V600E)): 8.48
pIC50 (134 cancer cell lines [4]; Homo sapiens, COLO-829, read-out: IC50 in cell proliferation assay, cell line COLO 829 (BRAF p.V600E)): 8.05
pIC50 (134 cancer cell lines [4]; Homo sapiens, DLD-1, read-out: IC50 in cell proliferation assay, cell line DLD-1): 5.78
pIC50 (134 cancer cell lines [4]; Homo sapiens, DU-4475, read-out: IC50 in cell proliferation assay, cell line DU4475 (BRAF p.V600E)): 8.10
pIC50 (134 cancer cell lines [4]; Homo sapiens, Daoy, read-out: IC50 in cell proliferation assay, cell line Daoy): < 4.50
pIC50 (134 cancer cell lines [4]; Homo sapiens, DoTc2-4510, read-out: IC50 in cell proliferation assay, cell line DoTc2 4510): 5.48
pIC50 (134 cancer cell lines [4]; Homo sapiens, EOL1, read-out: IC50 in cell proliferation assay, cell line EoL-1 (FIP1L1-PDGFRA)): 5.63
pIC50 (134 cancer cell lines [4]; Homo sapiens, FaDu, read-out: IC50 in cell proliferation assay, cell line FaDu): 6.02
pIC50 (134 cancer cell lines [4]; Homo sapiens, G-361, read-out: IC50 in cell proliferation assay, cell line G-361 (BRAF p.V600E)): 7.89
pIC50 (134 cancer cell lines [4]; Homo sapiens, HCC827, read-out: IC50 in cell proliferation assay, cell line HCC827 (EGFR exon19del)): 6.05
pIC50 (134 cancer cell lines [4]; Homo sapiens, HCC4006, read-out: IC50 in cell proliferation assay, cell line HCC4006 (EGFR exon19del)): < 4.50
pIC50 (134 cancer cell lines [4]; Homo sapiens, HCT-15, read-out: IC50 in cell proliferation assay, cell line HCT 15): 5.53
pIC50 (134 cancer cell lines [4]; Homo sapiens, HCT-116, read-out: IC50 in cell proliferation assay, cell line HCT 116): 5.94
pIC50 (134 cancer cell lines [4]; Homo sapiens, HEC-1, read-out: IC50 in cell proliferation assay, HEC-1 cell line): 5.80
pIC50 (134 cancer cell lines [4]; Homo sapiens, HEC-1B, read-out: IC50 in cell proliferation assay, HEC-1-B cell line (EGFR p.A864V)): 5.68
pIC50 (134 cancer cell lines [4]; Homo sapiens, HL-60, read-out: IC50 in cell proliferation assay, HL-60 cell line): 5.74
pIC50 (134 cancer cell lines [4]; Homo sapiens, HT, read-out: IC50 in cell proliferation assay, HT cell line): < 4.50
pIC50 (134 cancer cell lines [4]; Homo sapiens, HT-1080, read-out: IC50 in cell proliferation assay, HT-1080 cell line): 6.42
pIC50 (134 cancer cell lines [4]; Homo sapiens, Hs746T, read-out: IC50 in cell proliferation assay, Hs 746.T cell line (MET exon14skip + amplification)): 5.95
pIC50 (134 cancer cell lines [4]; Homo sapiens, Hs-578T, read-out: IC50 in cell proliferation assay, Hs 578T cell line): 5.99
pIC50 (134 cancer cell lines [4]; Homo sapiens, HuTu80, read-out: IC50 in cell proliferation assay, HuTu 80 cell line): 5.95
pIC50 (134 cancer cell lines [4]; Homo sapiens, J82, read-out: IC50 in cell proliferation assay, J82 cell line): 6.02
pIC50 (134 cancer cell lines [4]; Homo sapiens, Jurkat E6.1, read-out: IC50 in cell proliferation assay, Jurkat E6.1 cell line): 5.99
pIC50 (134 cancer cell lines [4]; Homo sapiens, K562, read-out: IC50 in cell proliferation assay, K-562 cell line): 4.56
pIC50 (134 cancer cell lines [4]; Homo sapiens, KATO III, read-out: IC50 in cell proliferation assay, KATO III cell line (FGFR2 amplification)): 5.82
pIC50 (134 cancer cell lines [4]; Homo sapiens, KG-1, read-out: IC50 in cell proliferation assay, KG-1 cell line (FGFR1OP2-FGFR1)): 5.84
pIC50 (134 cancer cell lines [4]; Homo sapiens, KLE, read-out: IC50 in cell proliferation assay, KLE cell line): 6.09
pIC50 (134 cancer cell lines [4]; Homo sapiens, KMS-11, read-out: IC50 in cell proliferation assay, KMS-11 cell line (FGFR3 p.Y373C)): 5.47
pIC50 (134 cancer cell lines [4]; Homo sapiens, KU812, read-out: IC50 in cell proliferation assay, Ku812 cell line): 5.59
pIC50 (134 cancer cell lines [4]; Homo sapiens, Kasumi 1, read-out: IC50 in cell proliferation assay, Kasumi-1 cell line (KIT p.N822K)): 5.52
pIC50 (134 cancer cell lines [4]; Homo sapiens, LC-2-ad, read-out: IC50 in cell proliferation assay, LC-2/ad cell line (CCDC6-RET)): 5.82
pIC50 (134 cancer cell lines [4]; Homo sapiens, LNCaP-Clone-FGC, read-out: IC50 in cell proliferation assay, LNCaP clone FGC cell line): 5.67
pIC50 (134 cancer cell lines [4]; Homo sapiens, LS174T, read-out: IC50 in cell proliferation assay, LS174T cell line): 5.77
pIC50 (134 cancer cell lines [4]; Homo sapiens, LS-411N, read-out: IC50 in cell proliferation assay, LS411N cell line (BRAF p.V600E)): 8.22
pIC50 (134 cancer cell lines [4]; Homo sapiens, LoVo, read-out: IC50 in cell proliferation assay, LoVo cell line): 5.60
pIC50 (134 cancer cell lines [4]; Homo sapiens, MCF7, read-out: IC50 in cell proliferation assay, MCF-7 cell line): < 4.50
pIC50 (134 cancer cell lines [4]; Homo sapiens, MDA-MB-231, read-out: IC50 in cell proliferation assay, MDA-MB-231 cell line): 5.62
pIC50 (134 cancer cell lines [4]; Homo sapiens, MDA-MB-453, read-out: IC50 in cell proliferation assay, MDA-MB-453 cell line): < 4.50
pIC50 (134 cancer cell lines [4]; Homo sapiens, MDA-MB-468, read-out: IC50 in cell proliferation assay, MDA-MB-468 cell line): < 4.50
pIC50 (134 cancer cell lines [4]; Homo sapiens, MG-63, read-out: IC50 in cell proliferation assay, MG-63 cell line): < 4.50
pIC50 (134 cancer cell lines [4]; Homo sapiens, MIA PaCa-2, read-out: IC50 in cell proliferation assay, MIA PaCa-2 cell line): 5.91
pIC50 (134 cancer cell lines [4]; Homo sapiens, MKN-45, read-out: IC50 in cell proliferation assay, MKN45 cell line (MET amplification)): 5.42
pIC50 (134 cancer cell lines [4]; Homo sapiens, MOLM-13, read-out: IC50 in cell proliferation assay, MOLM-13 cell line (FLT3 ITD)): 5.97
